{"source": "patent US8158621B2", "about": "“Methods of treating or preventing autoimmune diseases with 2,4-pyrimidinediamine compounds” (Rigel Pharmaceuticals, Inc., priority 2002, dated 2012)", "key": {"[1]": {"test": "Mouse model of allergic asthma (ovalbumin)", "type": "in vivo", "settings": "intranasal, 10 consecutive days (Day 7 through Day 16), 20 mg/kg", "excerpt": "Mice are sensitized to ovalbumin (chicken protein) in the presence of an adjuvant (Alum) by the intraperitoneal route on day 0 and day 7. One week later, mice are challenged intranasally with ovalbumin on Days 14, 15 and 16 (more stringent model) or on Day 14 (less stringent model). This sensitization and challenge regimen leads to airway hyperresponsiveness and inflammation in the lungs, which are two dominant characteristics of human allergic asthma. In the mouse model, the in vivo airway responses are measured using a whole body plethysmograph which determines the PENH (enhanced Pause, Buxco Electronics). The PENH is a dimensionless value comprised of the peak inspiratory flow (PIF), peak expiratory flow (PEF), time of inspiration, time of expiration and relaxation time, and is considered a validated parameter of airway responsiveness. Responses to allergen challenge (OVA) are compared with animals challenged with saline only. Twenty-four hours after challenge, mice are exposed to increasing doses of methacholine (muscarinic receptor agonist) which results in smooth muscle contraction. […] In addition, a cellular infiltrate in the airway is observed in ovalbumin challenged mice when compared with the saline challenged mice. This cellular infiltrate is mainly characterized by eosinophils, but a smaller influx of neutrophils and mononuclear cells is also present. […]"}, "[2]": {"test": "Oral bioavailability / pharmacokinetics in rats", "settings": "rat, in vivo", "protocol": "Over 50 2,4-pyrimidinediamine compounds of the invention were tested for oral bioavailability. For the study, compounds were dissolved in various vehicles (e.g. PEG 400 solution and CMC suspension) for intravenous and oral dosing in the rats. Following administration of the drug, plasma samples were obtained and extracted. The plasma concentrations of the compounds were determined by high performance liquid chromatography/tandem mass spectrometry (LC/MS/MS) methods. Pharmacokinetic analyses were performed based on the plasma concentration data. The pharmacokinetic parameters of interest include Clearance (CL), Volume of distribution at steady-state (Vss), terminal half-life (t1/2), and oral bioavailability (% F)."}, "[3]": {"test": "Rat collagen-induced arthritis (CIA)", "type": "in vivo, LOU rats", "settings": "for Blinded radiographic scores (scale 0-6): Day 28", "protocol": "In both protocols, clinical scores were obtained daily, and body weights are measured twice weekly. At Day 28, radiographic scores were obtained, and scrum levels of collagen II antibody were measured by ELISA."}, "[4]": {"test": "in vitro chromosomal aberration assay"}, "[5]": {"system": "CHMC cells", "test": "anti-IgE-induced Ca2+ flux in CHMC cells", "type": "cell-based, human", "settings": "10 μM"}, "[6]": {"system": "CHMC cells", "test": "ionomycin-induced Ca2+ flux in CHMC cells", "type": "cell-based, human", "settings": "10 μM"}}}
{"smiles": "CNC(=O)COc1cccc(Nc2ncc(F)c(Nc3ccc4c(n3)NC(=O)CO4)n2)c1", "note": "[Compound R921304]", "values": [{"measurement": "ovalbumin-induced airway hyperresponsiveness to methacholine", "setting": "[1]", "result": "able to inhibit"}]}
{"smiles": "Nc1cccc(Nc2ncc(F)c(Nc3cccc(N)c3)n2)c1", "note": "[Compound R921302]", "values": [{"measurement": "metabolic stability in pharmacokinetics study", "setting": "[2]", "result": "most metabolically stable compound"}, {"measurement": "arthritis score", "setting": "[3]; 300 mg/kg at disease onset, Day 16 to Day 28", "result": "significantly lower arthritis score"}, {"measurement": "mean clinical scores compared with vehicle controls", "setting": "[3]; 300 mg/kg/day from day of immunization, Days 10-28", "result": "significantly reduced"}, {"measurement": "erosions and soft tissue swelling", "setting": "[3]; 300 mg/kg/day, prophylactically or after disease onset", "result": "precluded the development of erosions and reduced soft tissue swelling"}, {"measurement": "Blinded radiographic scores (scale 0-6)", "setting": "[3]; once daily 150 mg/kg/day, prevention regimen", "result": "2.4±0.006"}, {"measurement": "Blinded radiographic scores (scale 0-6)", "setting": "[3]; once daily 300 mg/kg/day at onset of disease", "result": "0.45±0.031"}, {"measurement": "Blinded radiographic scores (scale 0-6)", "setting": "[3]; once daily 300 mg/kg/day, prevention regimen", "result": "0.13 ±0.000001"}, {"measurement": "serum anti-collagen II antibody", "setting": "[3]; data not shown", "result": "marked reduction"}]}
{"smiles": "CNC(=O)COc1cccc(Nc2ncc(F)c(Nc3ccc4c(c3)NCCO4)n2)c1", "note": "[Compound R921219]", "values": [{"measurement": "clastogenic potential, in vitro chromosomal aberration assay", "setting": "[4]", "result": "not found to possess elastogenic potential"}]}
{"smiles": "Oc1cccc(Nc2ncc(F)c(Nc3cccc(O)c3)n2)c1", "note": "[Compound R921218]", "values": [{"measurement": "anti-IgE-induced Ca2+ flux", "setting": "[5]", "result": "inhibited"}, {"measurement": "ionomycin-induced Ca2+ flux", "setting": "[6]", "result": "no effect"}]}
